Literature values, collected in paper PMC8621857, “Structural Insights into the Azole Resistance of the Candida albicans Darlington Strain Using Saccharomyces cerevisiae Lanosterol 14α-Demethylase as a Surrogate” (Journal of Fungi, 2021).

System: CaLDM I471T
Design: method as in PMID 20625155
Conditions: detergent solubilized CaLDM I471T single-mutation; cited from earlier work

CC(C)=CCC[C@@H](C)[C@H]1CC[C@@]2(C)C3=C(CC[C@]12C)[C@@]1(C)CC[C@H](O)C(C)(C)[C@@H]1CC3 [lanosterol]
higher affinity for the endogenous substrate than the wild-type protein: 2.4 fold
